Values quoted from earlier work, collected in patent publication US20060264455A1 (priority 2005, published 2006).

System: 6 Hz limbic seizures (corneal stimulation)
Settings: established antiepileptic drugs; cited from earlier work

SMILES	Efficacy in the 6 Hz psychomotor seizure model
Nc1nnc(-c2cccc(Cl)c2Cl)c(N)n1 [lamotrigine]	limited efficacy
NC(=O)N1c2ccccc2C=Cc2ccccc21 [carbamazepine]	limited efficacy
O=C1NC(=O)C(c2ccccc2)(c2ccccc2)N1 [phenytoin]	limited efficacy
CC1(C)O[C@@H]2[C@@H](CO[C@@]3(COS(N)(=O)=O)OC(C)(C)O[C@@H]23)O1 [topiramate]	limited efficacy
